Source: ChEMBL document CHEMBL3885881, “DrugMatrix”

Species: Rattus norvegicus
Assay: DrugMatrix - Regimen: Daily Repeat
Assay type: toxicity, organism-based, Sprague-Dawley
Set-up: regimen Daily Repeat, gender Male, age 6-8 weeks
Details: in vivo, po, route oral GAVAGE, […]; for ABSOLUTE BASOPHIL / ABSOLUTE EOSINOPHIL / ABSOLUTE LYMPHOCYTE / ABSOLUTE MONOCYTE / ABSOLUTE SEGMENTED NEUTROPHIL / BASOPHIL / EOSINOPHIL / ERYTHROCYTE COUNT / HEMATOCRIT / HEMOGLOBIN / LEUKOCYTE COUNT / LYMPHOCYTE / MEAN CORPUSCULAR HEMOGLOBIN / MEAN CORPUSCULAR HEMOGLOBIN CONCENTRATION / MEAN CORPUSCULAR VOLUME / MONOCYTE / NEUTROPHIL / NUCLEATED RED BLOOD CELLS / PLATELET COUNT: tissue Blood; for ALANINE AMINOTRANSFERASE / ALKALINE PHOSPHATASE / ASPARTATE AMINOTRANSFERASE / BLOOD UREA NITROGEN / CARBON DIOXIDE / CHLORIDE / CHOLESTEROL / CREATINE PHOSPHOKINASE / CREATININE / GLUCOSE / LACTATE DEHYDROGENASE / LIPASE / PHOSPHORUS / POTASSIUM / SODIUM / TOTAL BILIRUBIN / TOTAL PROTEIN / URIC ACID: tissue Plasma
[1] = 22 mg/kg, 120 h, dose level High, time 5 day
[2] = 72 h, dose 2.5 mg/Kg, dose level Low, time 3 day
[3] = 120 h, dose 2.5 mg/Kg, dose level Low, time 5 day

OCCN1CCN(CCCN2c3ccccc3Sc3ccc(C(F)(F)F)cc32)CC1 [FLUPHENAZINE]
ABSOLUTE BASOPHIL [1]: 0 CELLS/uL | ABSOLUTE EOSINOPHIL [1]: 112 CELLS/uL | ABSOLUTE LYMPHOCYTE [1]: 12846 CELLS/uL | ABSOLUTE MONOCYTE [1]: 29.33 CELLS/uL | ABSOLUTE SEGMENTED NEUTROPHIL [1]: 379.33 CELLS/uL | BASOPHIL [1]: 0% | EOSINOPHIL [1]: 1.33% | ERYTHROCYTE COUNT [1]: 6.02 x10E6/uL | HEMATOCRIT [1]: 36.97% | HEMOGLOBIN [1]: 14.2 G/DL | LEUKOCYTE COUNT [1]: 13.37 x10E3/uL | LYMPHOCYTE [1]: 95% | MEAN CORPUSCULAR HEMOGLOBIN [1]: 23.6 pg | MEAN CORPUSCULAR HEMOGLOBIN CONCENTRATION [1]: 38.43 G/DL | MEAN CORPUSCULAR VOLUME [1]: 61.37 fL | MONOCYTE [1]: 0.33% | NEUTROPHIL [1]: 3.33% | NUCLEATED RED BLOOD CELLS [1]: 0 /100WBC | PLATELET COUNT [1]: 1170.67 x10E3/uL | ALANINE AMINOTRANSFERASE [1]: 39.33 u/L | ALKALINE PHOSPHATASE [1]: 322.67 u/L | ASPARTATE AMINOTRANSFERASE [1]: 67.67 u/L | BLOOD UREA NITROGEN [1]: 15.67 mg/dL | CARBON DIOXIDE [1]: 26.67 mmol/L | CHLORIDE [1]: 101.33 MEQ/L | CHOLESTEROL [1]: 61.33 mg/dL | CREATINE PHOSPHOKINASE [1]: 190.33 u/L | CREATININE [1]: 0.13 mg/dL | GLUCOSE [1]: 198.67 mg/dL | LACTATE DEHYDROGENASE [1]: 80.67 u/L | LIPASE [1]: 9.67 u/L | PHOSPHORUS [1]: 9.4 mg/dL | POTASSIUM [1]: 5.22 MEQ/L | SODIUM [1]: 144.73 MEQ/L | TOTAL BILIRUBIN [1]: 0.2 mg/dL | TOTAL PROTEIN [1]: 6.13 G/DL | URIC ACID [1]: 0.77 mg/dL | ABSOLUTE BASOPHIL [2]: 0 CELLS/uL | ABSOLUTE EOSINOPHIL [2]: 0 CELLS/uL | ABSOLUTE LYMPHOCYTE [2]: 6619.33 CELLS/uL | ABSOLUTE MONOCYTE [2]: 22 CELLS/uL | ABSOLUTE SEGMENTED NEUTROPHIL [2]: 525.33 CELLS/uL | BASOPHIL [2]: 0% | EOSINOPHIL [2]: 0% | ERYTHROCYTE COUNT [2]: 5.21 x10E6/uL | HEMATOCRIT [2]: 33.8% | HEMOGLOBIN [2]: 13.13 G/DL | LEUKOCYTE COUNT [2]: 7.17 x10E3/uL | LYMPHOCYTE [2]: 92.33% | MEAN CORPUSCULAR HEMOGLOBIN [2]: 25.2 pg | MEAN CORPUSCULAR HEMOGLOBIN CONCENTRATION [2]: 38.83 G/DL | MEAN CORPUSCULAR VOLUME [2]: 64.97 fL | MONOCYTE [2]: 0.33% | NEUTROPHIL [2]: 7.33% | NUCLEATED RED BLOOD CELLS [2]: 0 /100WBC | PLATELET COUNT [2]: 973 x10E3/uL | ALANINE AMINOTRANSFERASE [2]: 49.67 u/L | ALKALINE PHOSPHATASE [2]: 458.33 u/L | ASPARTATE AMINOTRANSFERASE [2]: 79.67 u/L | BLOOD UREA NITROGEN [2]: 13.33 mg/dL | CARBON DIOXIDE [2]: 33.67 mmol/L | CHLORIDE [2]: 99.5 MEQ/L | CHOLESTEROL [2]: 74 mg/dL | CREATINE PHOSPHOKINASE [2]: 223.67 u/L | CREATININE [2]: 0.14 mg/dL | GLUCOSE [2]: 142.33 mg/dL | LACTATE DEHYDROGENASE [2]: 61.33 u/L | LIPASE [2]: 13.67 u/L | PHOSPHORUS [2]: 9.77 mg/dL | POTASSIUM [2]: 6.34 MEQ/L | SODIUM [2]: 144.3 MEQ/L | TOTAL BILIRUBIN [2]: 0.13 mg/dL | TOTAL PROTEIN [2]: 5.33 G/DL | URIC ACID [2]: 0.6 mg/dL | ABSOLUTE BASOPHIL [3]: 0 CELLS/uL | ABSOLUTE EOSINOPHIL [3]: 0 CELLS/uL | ABSOLUTE LYMPHOCYTE [3]: 9833.67 CELLS/uL | ABSOLUTE MONOCYTE [3]: 155 CELLS/uL | ABSOLUTE SEGMENTED NEUTROPHIL [3]: 711.33 CELLS/uL | BASOPHIL [3]: 0% | EOSINOPHIL [3]: 0% | ERYTHROCYTE COUNT [3]: 5.5 x10E6/uL | HEMATOCRIT [3]: 35.1% | HEMOGLOBIN [3]: 13.53 G/DL | LEUKOCYTE COUNT [3]: 10.7 x10E3/uL | LYMPHOCYTE [3]: 91.67% | MEAN CORPUSCULAR HEMOGLOBIN [3]: 24.63 pg | MEAN CORPUSCULAR HEMOGLOBIN CONCENTRATION [3]: 38.57 G/DL | MEAN CORPUSCULAR VOLUME [3]: 63.83 fL | MONOCYTE [3]: 1% | NEUTROPHIL [3]: 7.33% | NUCLEATED RED BLOOD CELLS [3]: 0 /100WBC | PLATELET COUNT [3]: 1129.67 x10E3/uL | ALANINE AMINOTRANSFERASE [3]: 57 u/L | ALKALINE PHOSPHATASE [3]: 337 u/L | ASPARTATE AMINOTRANSFERASE [3]: 75 u/L | BLOOD UREA NITROGEN [3]: 15 mg/dL | CARBON DIOXIDE [3]: 28 mmol/L | CHLORIDE [3]: 99 MEQ/L | CHOLESTEROL [3]: 72 mg/dL | CREATINE PHOSPHOKINASE [3]: 195.33 u/L | CREATININE [3]: 0.18 mg/dL | GLUCOSE [3]: 180 mg/dL | LACTATE DEHYDROGENASE [3]: 77.33 u/L | LIPASE [3]: 10.67 u/L | PHOSPHORUS [3]: 9.47 mg/dL | POTASSIUM [3]: 4.99 MEQ/L | SODIUM [3]: 144.87 MEQ/L | TOTAL BILIRUBIN [3]: 0.23 mg/dL | TOTAL PROTEIN [3]: 6.1 G/DL | URIC ACID [3]: 0.5 mg/dL
